# Earlier results, collected in patent US6121280A, “Azabicyclic rotomase inhibitors” (Pfizer Inc., priority 1999, dated 2000).
# Test system: neuronal cell line and culture models
# Conditions: Lyons et al. 1994, Snyder et al. 1995
compound,measurement,value
C=CC[C@@H]1/C=C(\C)C[C@H](C)C[C@H](OC)[C@H]2O[C@@](O)(C(=O)C(=O)N3CCCC[C@H]3C(=O)O[C@H](/C(C)=C/[C@@H]3CC[C@@H](O)[C@H](OC)C3)[C@H](C)[C@@H](O)CC1=O)[C@H](C)C[C@@H]2OC [FK-506],neurite outgrowth in vitro,promoted neurite outgrowth
